Legend:
[1] = test system: conversion of NAD to NADH in the presence of IMP; test: Functional activity of modified IMPDH multimers: conversion of NAD to NADH measured spectrophotometrically at 340 nm; assay type: biochemical, human; conditions: partially purified protein, 0.40 mM IMP, 0.40 mM NAD, 37° C.
Procedure: Polypeptides of the modified IMPDH-DKT, -SPS, -SPT, and -AGRP were isolated and partially purified using a blue dye affinity chromatographic step. All steps were performed at 4° C. unless otherwise noted. The frozen cell pellets (e.g., described in Example 1) were thawed on ice, and resuspended in 10 mL of Buffer A (25 mM Tris, pH 8.2, 20 mM KCl, 10% glycerol (v/v), 1 mM EDTA, 5 mM DTT, and 1 μg/mL leupeptin). The cells were lysed by 2×20 second sonication pulses using a ¼″ Microtip on a Branson model 450 sonifier (set on 2.5 power setting), and excessive foaming was carefully avoided. […] The samples were evaluated for the presence of the modified IMPDH polypeptides and to approximate the purity using standard SDS-PAGE methods, with Coomassie blue staining. For each of the modified IMPDH polypeptides, it was determined that the purity of the Buffer C fractions contained approximately 75% modified IMPDH polypeptide. The total protein content was quantitated using the Bradford assay method (Bradford, M. M., 1976, Anal. Biochem., 72: 248), with Biorad protein reagent (product #500-0006) and using BSA as a protein standard.
To evaluate the functional activity of the modified IMPDH polypeptides, the conversion of NAD to NADH was measured spectrophotometrically at 340 nm, 37° C. […] The production of NADH was determined by δOD^340 (ε=6220 M^−1 cm^−1), measured for 5 min. […]

[2] = target: T1, “DKT”-IMPDH-II (Homo sapiens, UniProt P12268, DEL111-240/K241D/Q243T); test: Steady state enzyme kinetics: inhibition of IMPDH-DKT by XMP and MPA; assay type: biochemical; conditions: for Inhibition type: steady state kinetics
T1 construct: The full-length, human, type II impdh cDNAs were used as templates; made in house; host or cells: E. coli BL21(DE3), pET24a
T1 sequence (P12268 with tags, fused parts or gaps DEL111-240/K241D/Q243T): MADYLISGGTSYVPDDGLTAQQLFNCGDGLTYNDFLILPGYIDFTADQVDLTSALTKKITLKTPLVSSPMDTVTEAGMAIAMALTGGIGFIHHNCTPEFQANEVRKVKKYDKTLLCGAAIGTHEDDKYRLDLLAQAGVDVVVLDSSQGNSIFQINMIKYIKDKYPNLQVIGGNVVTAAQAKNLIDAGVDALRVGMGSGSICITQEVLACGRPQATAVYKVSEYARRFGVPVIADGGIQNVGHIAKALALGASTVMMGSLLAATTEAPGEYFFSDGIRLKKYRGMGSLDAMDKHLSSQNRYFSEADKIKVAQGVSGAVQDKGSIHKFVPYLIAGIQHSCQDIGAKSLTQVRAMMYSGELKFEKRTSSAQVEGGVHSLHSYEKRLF

Ki ([2]; buffer D, 50 nM protein) [µM]	Inhibition type [2]	Compound	NADH produced [1]
		wild-type IMPDH holoenzyme: wild-type human type II IMPDH holo-enzyme, SEQ ID NO:49 [reference compound]	approximately 1.00 μmoles/min mg protein
67 ± 5	Competitive vs. IMP	O=c1[nH]c(=O)c2ncn([C@@H]3O[C@H](COP(=O)(O)O)[C@@H](O)[C@H]3O)c2[nH]1 [XMP, xanthosine-5′-monophosphate]	
	Uncompetitive vs. IMP	COc1c(C)c2c(c(O)c1C/C=C(\C)CCC(=O)O)C(=O)OC2 [MPA, Mycophenolic acid]	
